Measurements taken from patent US10179790B2 (THOMAS HELLEDAYS STIFTELSE FOR MEDICINSK FORSKNING, priority 2014, dated 2019).
pIC50: −log10 of the molar value.

Target: MTH1 (Homo sapiens, UniProt P36639)
Assay: MTH1 enzymatic assay and IC50 value determination (malachite green, 96- and 384-well format)
Format: biochemical
Conditions: hydrolysis of dGTP (100 μM), MTH1 6 nM, pyrophosphatase-coupled malachite green, 15 minutes at 22° C.
Experimental: MTH1 Enzymatic Assay and IC50 Value Determination
MTH1 catalyzes the hydrolysis of dGTP to dGMP and PPi. By coupling the reaction to pyrophosphatase added in excess PPi is converted to Pi that can be detected by using the malachite green assay reagent. Two different formats were used for IC50 determinations in the enzymatic assay, 96- and 384-well format. 96-Well Method:
Briefly, the compound to be analyzed is diluted in DMSO in a 1:3 dilution series generating 12 different compound concentrations giving a final DMSO concentration of 1% in the assay well. MTH1 diluted in assay buffer (100 mM Tris-acetate, 40 mM NaCl, 10 mM magnesium acetate, 1 mM DTT and 0.005% Tween 20) fortified with E. coli pyrophosphatase (0.2 U/ml) is added to a final concentration of 6 nM. dGTP diluted in assay buffer is added to a final concentration of 100 μM. The reaction mixture is incubated for 15 minutes at 22° C. To 100 μl reaction mixture, 25 μl Malachite green assay regent (0.095% Malachite green in 17% H2SO4, 1.5% Ammonium molybdate, 0.17% Tween 20) is added, followed by incubation with shaking for 15 minutes at 22° C. The absorbance of the assay plate is read at 630 nm using a Hidex Sense Multilabel plate reader. The IC50 value is determined by fitting a dose response curve to the data points using nonlinear regression analysis and the equation Y=Bottom+(Top−Bottom)/(1+10^((Log IC50−X)*HillSlope)), where Y is the read absorbance at 630 nm and X is log [compound].
The compounds to be tested are nano-dispensed, in 11 concentrations, directly in assay plates, with a final DMSO concentration <1%. The protocol and the reaction mixture are the same as for the 96-well assay, with a total reaction volume of 50 μl/well to which 10 μl of Malachite green reagent is added. All additions to the assay plates are made with multidrop.

SMILES	pIC50
Cc1ccc(-c2cc(NCCc3ccc(S(N)(=O)=O)cc3)nc(N)n2)o1 [Example 4, 4-(2-{[2-amino-6-(5-methylfuran-2-yl)pyrimidin-4-yl]amino}ethyl)benzene-1-sulfonamide]	> 6.70
Cc1cccc(-c2cc(NCCNc3ccc(C(N)=O)cn3)nc(N)n2)c1C [Example 5, 6-[(2-{[2-amino-6-(2,3-dimethylphenyl)pyrimidin-4-yl]amino}ethyl)amino]pyridine-3-carboxamide]	> 6.70
CSc1ccc(NC(=O)NCCCCNc2cc(-c3cccc(Cl)c3Cl)nc(N)n2)cc1 [Example 6, 3-(4-{[2-amino-6-(2,3-dichlorophenyl)pyrimidin-4-yl]amino}butyl)-1-[4-(methylsulfanyl)phenyl]urea]	> 6.70
C[S+]([O-])c1ccc(NC(=O)NCCCCNc2cc(-c3cccc(Cl)c3Cl)nc(N)n2)cc1 (stereo not shown) [Example 7, 3-(4-{[2-amino-6-(2,3-dichlorophenyl)pyrimidin-4-yl]amino}butyl)-1-(4-methanesulfinylphenyl)urea]	> 6.70
Cc1cc(-c2cc(NCCNc3ccc([N+](=O)[O-])cn3)nc(N)n2)c(C)cc1F [Example 8, 6-(4-fluoro-2,5-dimethylphenyl)-4-N-{2-[(5-nitropyridin-2-yl)amino]ethyl}pyrimidine-2,4-diamine]	> 6.70
Cc1c(Cl)cccc1-c1cc(NCCc2ccc(C(=O)O)cc2)nc(N)n1 [Example 9, 4-(2-{[2-amino-6-(3-chloro-2-methylphenyl)pyrimidin-4-yl]amino}ethyl)benzoic acid]	> 6.70
CC(=O)c1sccc1-c1cc(NCCc2ccc(S(N)(=O)=O)cc2)nc(N)n1 [Example 10, 4-(2-{[6-(2-acetylthiophen-3-yl)-2-aminopyrimidin-4-yl]amino}ethyl)benzene-1-sulfonamide]	> 6.70
CC(=O)Nc1ccc(NCCNc2cc(-c3cc(C)c(F)cc3C)nc(N)n2)nc1 [Example 11, N-{6-[(2-{[2-amino-6-(4-fluoro-2,5-dimethylphenyl)pyrimidin-4-yl]amino}ethyl)amino]pyridin-3-yl}acetamide]	> 6.70
Cc1cc(-c2cc(NCCNc3ccc(NS(C)(=O)=O)cn3)nc(N)n2)c(C)cc1F [Example 12, N-{6-[(2-{[2-amino-6-(4-fluoro-2,5-dimethylphenyl)pyrimidin-4-yl]amino}ethyl)amino]pyridin-3-yl}methanesulfonamide]	> 6.70
Cc1cccc(-c2cc(NCCNc3cncc(S(N)(=O)=O)c3)nc(N)n2)c1C [Example 14, 5-[(2-{[2-amino-6-(2,3-dimethylphenyl)pyrimidin-4-yl]amino}ethyl)amino]pyridine-3-sulfonamide]	> 6.70
Cc1c(Cl)cccc1-c1cc(N[C@H]2C[C@@H]2c2ccc(S(N)(=O)=O)cc2)nc(N)n1 [Example 15, 4-[(1R,2S)-2-{[2-amino-6-(3-chloro-2-methylphenyl)pyrimidin-4-yl]amino}cyclopropyl]benzene-1-sulfonamide]	> 6.70
CC(C)(C)OC(=O)NCc1ccc(-c2cc(NCCc3ccc(S(C)(=O)=O)cc3)nc(N)n2)s1 [Example 18, tert-butyl N-{[5-(2-amino-6-{[2-(4-methanesulfonylphenyl)ethyl]amino}pyrimidin-4-yl)thiophen-2-yl]methyl}carbamate]	> 6.70
Nc1nc(NCCc2ccc(S(N)(=O)=O)cc2)cc(-c2cccc(O)c2)n1 [Example 27, 4-(2-{[2-amino-6-(3-hydroxyphenyl)pyrimidin-4-yl]amino}ethyl)benzene-1-sulfonamide]	> 6.70
Nc1nc(NCCc2ccc(S(N)(=O)=O)cc2)cc(-c2cccc(OS(=O)(=O)C(F)(F)F)c2)n1 [Example 33, 3-(2-amino-6-{[2-(4-sulfamoylphenyl)ethyl]amino}pyrimidin-4-yl)phenyl trifluoromethanesulfonate]	> 6.70
Cc1cccc(-c2cc(NCCc3ccc(C(=O)O)cc3)nc(N)n2)c1C [Example 34, 4-(2-{[2-amino-6-(2,3-dimethylphenyl)pyrimidin-4-yl]amino}ethyl)benzoic acid]	> 6.70
Nc1nc(NCCNc2ccc3c(c2)NC(=O)CO3)cc(-c2cccc(Cl)c2)n1 [Example 37, 6-[(2-{[2-amino-6-(3-chlorophenyl)pyrimidin-4-yl]amino}ethyl)amino]-3,4-dihydro-2H-1,4-benzoxazin-3-one]	> 6.70
Cc1cccc(-c2cc(NCCNc3nc(N)nc4[nH]cnc34)nc(N)n2)c1C [Example 45, 4-N-{2-[(2-amino-9H-purin-6-yl)amino]ethyl}-6-(2,3-dimethylphenyl)pyrimidine-2,4-diamine]	> 6.70
COC(=O)c1cc(C)nc(NCCNc2cc(-c3cccc(C)c3C)nc(N)n2)n1 [Example 50, methyl 2-[(2-{[2-amino-6-(2,3-dimethylphenyl)pyrimidin-4-yl]amino}ethyl)amino]-6-methylpyrimidine-4-carboxylate]	> 6.70
Cc1cccc(-c2cc(NCCNc3ncnc4[nH]cnc34)nc(N)n2)c1C [Example 51, 6-(2,3-dimethylphenyl)-4-N-{2-[(9H-purin-6-yl)amino]ethyl}pyrimidine-2,4-diamine]	> 6.70
Cc1cc(Cl)c(Cl)cc1-c1cc(NCCc2ccc(S(N)(=O)=O)cc2)nc(N)n1 [Example 67, 4-(2-{[2-amino-6-(4,5-dichloro-2-methylphenyl)pyrimidin-4-yl]amino}ethyl)benzene-1-sulfonamide]	> 6.70
COc1cc(C)c(-c2cc(NCCc3ccc(S(N)(=O)=O)cc3)nc(N)n2)cc1Cl [Example 68, 4-(2-{[2-amino-6-(5-chloro-4-methoxy-2-methylphenyl)pyrimidin-4-yl]amino}ethyl)benzene-1-sulfonamide]	> 6.70
Nc1nc(NCCc2ccc(S(N)(=O)=O)cc2)cc(-c2cccc3[nH]ccc23)n1 [Example 69, 4-(2-{[2-amino-6-(1H-indol-4-yl)pyrimidin-4-yl]amino}ethyl)benzene-1-sulfonamide]	> 6.70
Cc1ccc(F)cc1-c1cc(NCCc2ccc(S(N)(=O)=O)cc2)nc(N)n1 [Example 71, 4-(2-{[2-amino-6-(5-fluoro-2-methylphenyl)pyrimidin-4-yl]amino}ethyl)benzene-1-sulfonamide]	> 6.70
NC(=O)c1ccc(CCNc2cc(-c3cccc(Cl)c3F)nc(N)n2)cc1 [Example 80, 4-(2-{[2-amino-6-(3-chloro-2-fluorophenyl)pyrimidin-4-yl]amino}ethyl)benzamide]	> 6.70
Cc1c(Cl)cccc1-c1cc(NCCc2cccc(C(N)=O)c2)nc(N)n1 [Example 88, 3-[2-[[2-amino-6-(3-chloro-2-methyl-phenyl)pyrimidin-4-yl]amino]ethyl]benzamide]	> 6.70
CN1C(=O)COc2ccc(NCCNc3cc(-c4cccc(Cl)c4Cl)nc(N)n3)cc21 [Example 94, 6-[2-[[2-amino-6-(2,3-dichlorophenyl)pyrimidin-4-yl]amino]ethylamino]-4-methyl-1,4-benzoxazin-3-one]	> 6.70
Nc1nc(NCCc2ccc(S(N)(=O)=O)cc2)cc(-c2ccc(Cl)c(Cl)c2Cl)n1 [Example 98, 4-[2-[[2-amino-6-(2,3,4-trichlorophenyl)pyrimidin-4-yl]amino]ethyl]benzenesulfonamide]	> 6.70
COc1c(Cl)ccc(-c2cc(NCCc3ccc(S(N)(=O)=O)cc3)nc(N)n2)c1Cl [Example 99, 4-[2-[[2-amino-6-(2,4-dichloro-3-methoxy-phenyl)pyrimidin-4-yl]amino]ethyl]benzenesulfonamide]	> 6.70
